Reference: ChEMBL document CHEMBL5385847, “Design, synthesis and biological evaluation of a new class of 7H-pyrrolo[2,3-d]pyrimidine derivatives as Mps1 inhibitors for the treatment of breast cancer” (Eur J Med Chem, 2023)
Activity calls are given as the source filed them. The calls are words filed in the database; no cut-off is given here.

Tests used:
[1] = Toxicity in BALB/C mouse xenografted with mouse 4T1-Luc cells assessed as histological change in liver at 30 to 60 mg/kg, po qd treated for 15 days by H and E staining based analysis; type: organism-based; conditions: in vivo, 360 h, dose 30-60 mg/kg, time 15 day
4T1-Luc = assay: Inhibition of cell proliferation in mouse 4T1-Luc cells xenografted in BALB/C mouse assessed as reduction in Ki-67 positive cells at 30 to 60 mg/kg, po qd treated for 15 days by IHC analysis; type: functional, organism-based; conditions: dose 30-60 mg/kg, time 15.0 day
Vero = assay: Antiproliferative activity against African green monkey Vero cells assessed as inhibition of cell viability by MTT assay; type: toxicity, cell-based; conditions: chlorocebus sabaeus
[2] = Toxicity in BALB/C mouse xenografted with mouse 4T1-Luc cells assessed as histological change in spleen at 30 to 60 mg/kg, po qd treated for 15 days by H and E staining based analysis; type: organism-based; conditions: in vivo, 360 h, dose 30-60 mg/kg, time 15 day
MCF7 [3] = assay: Induction of apoptosis in human MCF7 cells assessed as early apoptotic cells at 1 uM incubated for 48 hrs by Annexin V-FITC/PI staining based flow cytometry (reference value: 1.19 %); type: functional
[4] = target: Receptor-type tyrosine-protein kinase FLT3 (Homo sapiens) (UniProt P36888); assay: Inhibition of human FLT3 at 1 uM by KINOMEscan assay relative to control
Chain of Receptor-type tyrosine-protein kinase FLT3 (Homo sapiens) (P36888 whole entry): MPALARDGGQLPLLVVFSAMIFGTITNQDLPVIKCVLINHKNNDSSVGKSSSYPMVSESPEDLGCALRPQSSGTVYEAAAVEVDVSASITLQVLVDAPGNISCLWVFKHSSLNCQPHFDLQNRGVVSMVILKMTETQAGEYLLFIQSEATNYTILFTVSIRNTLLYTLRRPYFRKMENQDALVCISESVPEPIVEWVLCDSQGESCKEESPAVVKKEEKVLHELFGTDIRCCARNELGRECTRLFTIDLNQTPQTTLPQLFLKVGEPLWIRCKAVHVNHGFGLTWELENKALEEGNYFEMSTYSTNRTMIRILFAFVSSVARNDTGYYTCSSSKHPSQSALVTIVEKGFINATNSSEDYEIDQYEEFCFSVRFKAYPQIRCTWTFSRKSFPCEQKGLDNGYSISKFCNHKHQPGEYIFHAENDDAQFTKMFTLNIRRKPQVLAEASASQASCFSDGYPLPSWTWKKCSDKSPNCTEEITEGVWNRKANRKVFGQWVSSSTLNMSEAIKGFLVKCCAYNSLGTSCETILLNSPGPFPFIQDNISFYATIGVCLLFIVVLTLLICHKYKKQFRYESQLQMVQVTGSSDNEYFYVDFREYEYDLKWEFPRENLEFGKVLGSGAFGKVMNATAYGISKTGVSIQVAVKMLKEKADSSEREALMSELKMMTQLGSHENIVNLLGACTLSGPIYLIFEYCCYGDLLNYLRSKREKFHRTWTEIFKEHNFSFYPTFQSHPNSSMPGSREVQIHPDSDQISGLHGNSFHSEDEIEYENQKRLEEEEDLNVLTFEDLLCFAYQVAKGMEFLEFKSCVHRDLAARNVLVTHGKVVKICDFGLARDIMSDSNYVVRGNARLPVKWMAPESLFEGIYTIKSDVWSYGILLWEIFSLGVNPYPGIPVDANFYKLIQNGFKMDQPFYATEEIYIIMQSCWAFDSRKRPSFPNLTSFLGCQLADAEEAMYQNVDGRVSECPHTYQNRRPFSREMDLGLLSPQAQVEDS

[5] = target: ALK tyrosine kinase receptor (Homo sapiens) (UniProt Q9UM73); assay: Inhibition of human ALK at 1 uM by KINOMEscan assay relative to control
4T1 [6] = assay: Antiproliferative activity against 4T1 cells assessed as inhibition of cell viability upto 10 uM by MTT assay; type: functional, cell-based; conditions: Mus musculus, time 24-72 hrs, TDE = time-dependent effect
[7] = target: Tyrosine-protein kinase JAK2 (Homo sapiens) (UniProt O60674); assay: Inhibition of human JAK2 at 1 uM by KINOMEscan assay relative to control
Chain of Tyrosine-protein kinase JAK2 (Homo sapiens) (O60674 whole entry): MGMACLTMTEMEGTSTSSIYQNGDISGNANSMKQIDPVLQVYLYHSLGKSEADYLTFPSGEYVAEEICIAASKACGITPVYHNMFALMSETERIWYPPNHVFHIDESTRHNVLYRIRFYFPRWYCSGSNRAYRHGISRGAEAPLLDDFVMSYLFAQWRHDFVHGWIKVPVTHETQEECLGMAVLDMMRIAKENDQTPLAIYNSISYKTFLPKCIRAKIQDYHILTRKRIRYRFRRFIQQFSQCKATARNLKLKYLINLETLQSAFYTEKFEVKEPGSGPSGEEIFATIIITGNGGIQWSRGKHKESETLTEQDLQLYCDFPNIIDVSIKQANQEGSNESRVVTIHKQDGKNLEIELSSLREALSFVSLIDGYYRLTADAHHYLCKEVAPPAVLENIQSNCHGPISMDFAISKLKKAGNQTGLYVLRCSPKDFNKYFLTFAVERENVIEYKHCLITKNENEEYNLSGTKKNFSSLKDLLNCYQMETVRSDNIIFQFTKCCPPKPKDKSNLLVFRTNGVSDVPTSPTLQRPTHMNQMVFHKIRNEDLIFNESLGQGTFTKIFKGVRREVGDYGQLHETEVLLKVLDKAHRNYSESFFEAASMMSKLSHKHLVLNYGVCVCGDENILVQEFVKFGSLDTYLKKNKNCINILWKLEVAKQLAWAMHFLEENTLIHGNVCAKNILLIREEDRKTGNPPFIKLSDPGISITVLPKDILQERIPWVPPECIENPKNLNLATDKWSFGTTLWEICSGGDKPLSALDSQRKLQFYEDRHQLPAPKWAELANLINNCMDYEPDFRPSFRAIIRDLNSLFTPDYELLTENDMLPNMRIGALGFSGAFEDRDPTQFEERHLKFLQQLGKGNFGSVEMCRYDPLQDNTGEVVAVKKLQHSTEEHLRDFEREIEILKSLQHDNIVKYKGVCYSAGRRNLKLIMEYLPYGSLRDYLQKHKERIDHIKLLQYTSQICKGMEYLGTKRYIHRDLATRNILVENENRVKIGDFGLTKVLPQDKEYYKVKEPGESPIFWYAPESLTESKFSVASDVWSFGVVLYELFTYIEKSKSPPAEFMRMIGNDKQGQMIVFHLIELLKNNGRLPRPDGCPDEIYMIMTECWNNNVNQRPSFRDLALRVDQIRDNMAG

[8] = Toxicity in BALB/C mouse xenografted with mouse 4T1-Luc cells assessed as body weight change at 30 to 60 mg/kg, po qd treated for 15 days; type: organism-based; conditions: in vivo, 360 h, dose 30-60 mg/kg, time 15 day
MCF7 [9] = assay: Induction of apoptosis in human MCF7 cells assessed as early apoptotic cells at 5 uM incubated for 48 hrs by Annexin V-FITC/PI staining based flow cytometry (reference value: 1.19 %); type: functional
AGS = assay: Antiproliferative activity against human AGS cells assessed as inhibition of cell viability by MTT assay; type: functional, cell-based
[10] = target: T1, Dual specificity protein kinase TTK (Homo sapiens) (UniProt P33981); assay: Inhibition of human Mps1 at 1 uM by KINOMEscan assay relative to control
T1 sequence (whole entry): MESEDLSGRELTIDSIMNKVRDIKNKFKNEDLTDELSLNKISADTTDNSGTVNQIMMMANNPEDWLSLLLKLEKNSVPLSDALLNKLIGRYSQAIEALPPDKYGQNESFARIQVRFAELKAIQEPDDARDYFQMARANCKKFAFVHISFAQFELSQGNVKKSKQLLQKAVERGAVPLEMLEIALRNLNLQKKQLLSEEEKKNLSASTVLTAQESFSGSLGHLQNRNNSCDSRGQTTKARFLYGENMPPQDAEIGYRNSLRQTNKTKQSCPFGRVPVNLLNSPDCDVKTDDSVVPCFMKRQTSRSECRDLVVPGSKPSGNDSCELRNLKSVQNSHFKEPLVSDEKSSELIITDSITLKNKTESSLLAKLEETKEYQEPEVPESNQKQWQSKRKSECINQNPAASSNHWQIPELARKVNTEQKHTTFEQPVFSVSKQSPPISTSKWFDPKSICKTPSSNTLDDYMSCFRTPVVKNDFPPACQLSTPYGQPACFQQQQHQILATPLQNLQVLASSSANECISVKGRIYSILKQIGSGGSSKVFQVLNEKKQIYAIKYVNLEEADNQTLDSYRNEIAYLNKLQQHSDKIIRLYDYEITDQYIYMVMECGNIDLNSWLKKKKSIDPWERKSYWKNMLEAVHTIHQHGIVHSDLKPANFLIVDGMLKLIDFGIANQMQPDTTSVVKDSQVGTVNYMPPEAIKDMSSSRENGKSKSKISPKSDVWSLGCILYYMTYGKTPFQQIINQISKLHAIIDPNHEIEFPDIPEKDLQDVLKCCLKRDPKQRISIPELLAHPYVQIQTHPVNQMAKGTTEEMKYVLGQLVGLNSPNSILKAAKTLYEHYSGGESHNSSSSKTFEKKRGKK

MCF7 [11] = assay: Induction of apoptosis in human MCF7 cells assessed as necrotic cells at 1 uM incubated for 48 hrs by Annexin V-FITC/PI staining based flow cytometry (reference value: 0.03 %); type: functional
MDA-MB-231 [12] = assay: Antiproliferative activity against human MDA-MB-231 cells assessed as inhibition of cell viability upto 10 uM incubated for 72 hrs by MTT assay; type: functional, cell-based
MCF7 [13] = assay: Antiproliferative activity against human MCF7 cells assessed as inhibition of cell viability incubated for 24 to 72 hrs by MTT assay; type: functional, cell-based; conditions: dose <= 10.0 µM, time 24-72 hrs
[14] = target: Tyrosine-protein kinase JAK2 (Homo sapiens) (UniProt O60674); assay: Inhibition of human JAK2 at 0.1 uM by KINOMEscan assay relative to control
MCF7 [15] = assay: Induction of cell cycle arrest in human MCF7 cells at G2/M phase incubated for 24 hrs by Annexin V/PI staining based flow cytometry; type: functional; conditions: dose <= 5.0 µM
MCF7 [16] = assay: Induction of cell cycle arrest in human MCF7 cells at G2/M phase assessed as decrease in CDK1 level incubated for 24 hrs by Western blot analysis; type: functional, cell-based; conditions: dose <= 3.0 µM
[17] = test system: Tyrosine-protein kinase ABL1 (Homo sapiens), P00519 [T315I]; assay: Inhibition of human Abl T315I mutant at 0.1 uM by KINOMEscan assay relative to control
[18] = target: Tyrosine-protein kinase Yes (Homo sapiens) (UniProt P07947); assay: Inhibition of human Yes at 0.1 uM by KINOMEscan assay relative to control
Chain of Tyrosine-protein kinase Yes (Homo sapiens) (P07947 2-543 limits assumed): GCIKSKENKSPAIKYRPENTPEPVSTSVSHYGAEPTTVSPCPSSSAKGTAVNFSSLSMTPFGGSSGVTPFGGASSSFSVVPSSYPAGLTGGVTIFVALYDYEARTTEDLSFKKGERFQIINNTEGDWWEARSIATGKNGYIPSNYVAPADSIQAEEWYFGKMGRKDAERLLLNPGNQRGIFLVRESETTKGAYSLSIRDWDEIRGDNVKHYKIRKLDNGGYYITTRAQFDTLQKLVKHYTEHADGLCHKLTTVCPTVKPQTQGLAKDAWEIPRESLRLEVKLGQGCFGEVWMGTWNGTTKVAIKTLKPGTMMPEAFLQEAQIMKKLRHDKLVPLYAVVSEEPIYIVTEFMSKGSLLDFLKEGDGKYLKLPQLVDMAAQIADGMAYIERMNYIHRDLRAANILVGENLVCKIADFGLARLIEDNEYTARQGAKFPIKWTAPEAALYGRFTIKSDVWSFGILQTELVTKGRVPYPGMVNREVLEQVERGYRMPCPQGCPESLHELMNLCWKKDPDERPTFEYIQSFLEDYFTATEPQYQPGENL

HEY = assay: Antiproliferative activity against human HEY cells assessed as inhibition of cell viability upto 10 uM incubated for 72 hrs by MTT assay; type: functional, cell-based
MDA-MB-231 [19] = assay: Antiproliferative activity against human MDA-MB-231 cells assessed as inhibition of cell viability by MTT assay; type: functional, cell-based
4T1 [20] = assay: Antiproliferative activity against 4T1 cells assessed as inhibition of cell viability by MTT assay; type: functional, cell-based; conditions: Mus musculus
ES-2 = assay: Antiproliferative activity against human ES2 cells assessed as inhibition of cell viability upto 10 uM incubated for 72 hrs by MTT assay; type: functional, cell-based
[21] = target: T2, Dual specificity protein kinase TTK (Homo sapiens, UniProt P33981); assay: Inhibition of Mps1 (unknown origin) incubated for 120 mins in presence of substrate/ATP by ADP-Glo assay
T2 sequence (P33981 whole entry): T1 sequence (whole entry)

[22] = target: Angiopoietin-1 receptor (Homo sapiens) (UniProt Q02763); assay: Inhibition of human Tie2 at 1 uM by KINOMEscan assay relative to control
[23] = target: Hepatocyte growth factor receptor (Homo sapiens) (UniProt P08581); assay: Inhibition of human Met at 1 uM by KINOMEscan assay relative to control
Chain of Hepatocyte growth factor receptor (Homo sapiens) (P08581 whole entry): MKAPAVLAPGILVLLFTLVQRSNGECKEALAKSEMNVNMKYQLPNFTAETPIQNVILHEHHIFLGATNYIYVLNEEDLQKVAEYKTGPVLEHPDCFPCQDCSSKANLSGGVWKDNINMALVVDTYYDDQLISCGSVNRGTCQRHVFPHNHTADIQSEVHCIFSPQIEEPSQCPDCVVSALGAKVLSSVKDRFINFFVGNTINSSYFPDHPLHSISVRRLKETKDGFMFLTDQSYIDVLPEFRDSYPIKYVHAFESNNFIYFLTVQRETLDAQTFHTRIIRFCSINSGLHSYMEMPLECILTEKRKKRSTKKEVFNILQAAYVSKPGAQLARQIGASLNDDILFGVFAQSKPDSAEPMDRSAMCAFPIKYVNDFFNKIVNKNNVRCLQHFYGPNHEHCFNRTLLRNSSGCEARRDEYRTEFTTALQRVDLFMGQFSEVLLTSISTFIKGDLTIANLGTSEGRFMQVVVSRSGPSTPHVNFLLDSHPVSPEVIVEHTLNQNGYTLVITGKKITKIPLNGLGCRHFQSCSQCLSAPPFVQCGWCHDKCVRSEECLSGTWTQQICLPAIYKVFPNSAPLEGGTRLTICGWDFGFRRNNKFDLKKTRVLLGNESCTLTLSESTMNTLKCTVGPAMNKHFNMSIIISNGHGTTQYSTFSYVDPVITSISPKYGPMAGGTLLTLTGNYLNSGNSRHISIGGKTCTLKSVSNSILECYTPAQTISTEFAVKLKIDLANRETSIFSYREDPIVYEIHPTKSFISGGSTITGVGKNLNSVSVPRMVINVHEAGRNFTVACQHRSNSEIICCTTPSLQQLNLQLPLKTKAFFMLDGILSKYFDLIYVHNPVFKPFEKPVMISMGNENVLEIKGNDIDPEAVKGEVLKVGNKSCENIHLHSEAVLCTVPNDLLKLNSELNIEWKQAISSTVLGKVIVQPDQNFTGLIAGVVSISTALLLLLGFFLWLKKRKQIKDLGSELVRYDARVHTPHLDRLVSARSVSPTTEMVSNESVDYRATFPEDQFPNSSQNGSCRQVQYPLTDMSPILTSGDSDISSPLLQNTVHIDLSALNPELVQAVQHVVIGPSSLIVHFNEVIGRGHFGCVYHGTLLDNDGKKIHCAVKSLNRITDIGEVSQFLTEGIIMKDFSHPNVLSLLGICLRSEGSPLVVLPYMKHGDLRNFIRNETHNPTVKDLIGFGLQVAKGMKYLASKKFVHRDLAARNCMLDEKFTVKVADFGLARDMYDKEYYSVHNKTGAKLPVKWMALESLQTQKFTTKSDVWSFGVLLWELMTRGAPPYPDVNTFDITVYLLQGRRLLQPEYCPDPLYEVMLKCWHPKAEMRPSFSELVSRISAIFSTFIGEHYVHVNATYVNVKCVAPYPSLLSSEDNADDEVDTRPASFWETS

CN1CCN(c2ccc(Nc3nc(-n4nc(N)c5ccccc54)c4cc[nH]c4n3)cc2)CC1
Activity [1]: Non-Toxic
inhibition (4T1-Luc): Active
Activity (Vero): Non-Toxic
Activity [2]: Non-Toxic
Activity (MCF7 [3]): 6.54%
inhibition [4]: 92%
inhibition [5]: 91%
inhibition (4T1 [6]): Tde
inhibition [7]: 95%
Activity [8]: Non-Toxic
Activity (MCF7 [9]): 2.3%
IC50 (AGS): > 3 µM
inhibition [10]: > 90%
Activity (MCF7 [11]): 0.26%
inhibition (MDA-MB-231 [12]): Active
inhibition (MCF7 [13]): Dose-Dependent Effect
inhibition [14]: 65%
Activity (MCF7 [15]): Dose-Dependent Effect
Activity (MCF7 [16]): Dose-Dependent Effect
inhibition [17]: 40%
inhibition [18]: 80%
inhibition (HEY): Active
IC50 (MDA-MB-231 [19]): 2.68 µM
IC50 (4T1 [20]): 0.4 µM
inhibition (ES-2): Active
IC50 [21]: 0.029 µM
inhibition [22]: 92%
inhibition [23]: 100%
